Values belong to the molecule of their own block, whether it stands above or below them.
Columns and labels:
[1] = hypertensive patients; cited from earlier work
[2] = test system: neointimal formation; settings: cited from earlier work
[3] = in man; cited from earlier work

melting point: 187.6 °C
SMILES: COc1ccccc1Oc1c(OC)nn(C)c1NS(=O)(=O)c1ccc(C(C)(C)C)cc1 [Example 107, 4-(tert-Butyl)-N-[3-methoxy-4-(2-methoxyphenoxy)-1-methyl-1H-pyrazol-5-yl]benzenesulfonamide]

SMILES: COc1ccccc1Oc1c(NS(=O)(=O)c2ccc(C(C)(C)C)cc2)nc(-c2ncccn2)nc1OCCO [Bosentan]
blood pressure [1]: decreased blood pressure

SMILES: CCCOc1ccc2c(c1)[C@@H](c1ccc(OC)cc1OCC(=O)O)[C@H](C(=O)O)[C@H]2c1ccc2c(c1)OCO2 [SB-209670]
reduction in neointimal formation relative to control animals [2]: 50%

SMILES: CCCC[C@@H](NC(=O)[C@@H](Cc1cn(C(=O)OC)c2ccccc12)NC(=O)[C@H](CC(C)(C)C)NC(=O)N1[C@H](C)CCC[C@@H]1C)C(=O)O [BQ-788]
peripheral resistance [3]: increase peripheral resistance

Reference: US6962923B2, “Pyrazole compositions” (Pfizer Inc., priority 1999, dated 2005)
